In ChEMBL document CHEMBL3045800 (2003):

Columns and labels:
Oryza sativa = assay type: functional,  cv. Nipponbare
Pyricularia oryzae [1] = experiment: Inhibition of appressorium formation in Magnaporthe oryzae at 20 ppm after 48 hr by microscopy based cellulose membrane method; assay type: functional; conditions: read-out: INH
Pyricularia oryzae [2] = experiment: Inhibition of appressorium formation in Magnaporthe oryzae at 40 ppm after 48 hr by microscopy based cellulose membrane method; assay type: functional; conditions: read-out: INH
Pyricularia oryzae [3] = experiment: Inhibition of appressorium formation in Magnaporthe oryzae at 80 ppm after 48 hr by microscopy based cellulose membrane method; assay type: functional; conditions: read-out: INH
Pyricularia oryzae [4] = experiment: Inhibition of appressorium formation in Magnaporthe oryzae at 100 ppm after 48 hr by microscopy based cellulose membrane method; assay type: functional; conditions: read-out: INH
Pyricularia oryzae [5] = experiment: Inhibition of spore germination in Magnaporthe oryzae at 20 ppm after 48 hr; assay type: functional; conditions: read-out: INH
Pyricularia oryzae [6] = experiment: Inhibition of spore germination in Magnaporthe oryzae at 40 ppm after 48 hr; assay type: functional; conditions: read-out: INH
Pyricularia oryzae [7] = experiment: Inhibition of spore germination in Magnaporthe oryzae at 80 ppm after 48 hr; assay type: functional; conditions: read-out: INH
Pyricularia oryzae [8] = experiment: Inhibition of spore germination in Magnaporthe oryzae at 100 ppm after 48 hr; assay type: functional; conditions: read-out: INH
Pyricularia oryzae [9] = experiment: Inhibition of mycelial growth in Magnaporthe oryzae at 200 ppm after 7 days by hyphal growth inhibition assay; assay type: functional; conditions: 168 h, read-out: INH
Pyricularia oryzae [10] = experiment: Inhibition of mycelial growth in Magnaporthe oryzae at 400 ppm after 7 days by hyphal growth inhibition assay; assay type: functional; conditions: 168 h, read-out: INH
Pyricularia oryzae [11] = experiment: Inhibition of mycelial growth in Magnaporthe oryzae at 800 ppm after 7 days by hyphal growth inhibition assay; assay type: functional; conditions: 168 h, read-out: INH
Pyricularia oryzae [12] = experiment: Inhibition of mycelial growth in Magnaporthe oryzae at 1000 ppm after 7 days by hyphal growth inhibition assay; assay type: functional; conditions: 168 h, read-out: INH

## Cn1nc(Cl)cc1C=O
Oryza sativa
  ED80: >5 mg

## Cn1nc(Cl)cc1C(=O)O [3-CHLORO-1-METHYL-1H-PYRAZOLE-5-CARBOXYLIC ACID]
Pyricularia oryzae [1]
  inhibition at 20 ppm: 0%
Pyricularia oryzae [2]
  inhibition at 40 ppm: 0%
Pyricularia oryzae [3]
  inhibition at 80 ppm: 10%
Pyricularia oryzae [4]
  inhibition at 100 ppm: 41.6%
Pyricularia oryzae [5]
  inhibition at 20 ppm: 0%
Pyricularia oryzae [6]
  inhibition at 40 ppm: 0%
Pyricularia oryzae [7]
  inhibition at 80 ppm: 0%
Pyricularia oryzae [8]
  inhibition at 100 ppm: 35.4%
Pyricularia oryzae [9]
  inhibition at 200 ppm: 0%
Pyricularia oryzae [10]
  inhibition at 400 ppm: 0%
Pyricularia oryzae [11]
  inhibition at 800 ppm: 0%
Pyricularia oryzae [12]
  inhibition at 1000 ppm: 47.5%
Oryza sativa
  ED80: 0.05 mg

## Cn1nc(Br)cc1C(=O)O
Oryza sativa
  ED80: 0.05 mg

## CC(=O)c1cc(Cl)nn1C
Oryza sativa
  ED80: 5 mg

## COC(=O)Nc1cc(Cl)nn1C
Oryza sativa
  ED80: >5 mg

## Cn1nccc1C(=O)O
Oryza sativa
  ED80: >5 mg

## COC(=O)c1cc(Cl)nn1C
Oryza sativa
  ED80: 0.05 mg

## Cn1nc(Cl)cc1CC(=O)O
Oryza sativa
  ED80: 5 mg

## Cc1cc(C(=O)O)n(C)n1
Oryza sativa
  ED80: 0.5 mg

## Cn1ncc(C(=O)O)c1Cl
Oryza sativa
  ED80: >5 mg

## Cn1cc(C(=O)O)c(Cl)n1
Oryza sativa
  ED80: 0.5 mg
